Assays:
[1] = system: tactile allodynia in OXPT-treated mice; assay: Oxaliplatin (OXPT)-induced peripheral neuropathy, von Frey test; assay type: in vivo
Experimental: In order to investigate the analgesic activity of the most promising compound 30 in a neuropathic pain model, we tested it in oxaliplatin (OXPT)-induced peripheral neuropathy, in which mechanical and cold allodynia result from impaired function of ion channels, among others. The early phase of neuropathic pain appears hours after OXPT administration, while the late phase develops days after OXPT. Thus, we tested compound 30 3 h and 7 days after the injection of OXPT. We investigated the influence of compound 30 on tactile allodynia using the von Frey method. Three hours after the administration of OXPT we observed a significant decrease in the mean value of force that caused paw withdrawal reaction (1.89 ± 0.04 g) (64.2% of the baseline) compared to nontreated animals (2.94 ± 0.06 g) (the baseline). Seven days after OXPT administration, the pain threshold was 2.00 ± 0.03 (68.0% of the baseline). […] In the late phase, the values of pain threshold were as follows 2.18 ± 0.06 g, 2.60 ± 0.08 g, and 2.91 ± 0.05 g, which correspond to 74.1%, 88.4%, and 98.9% of the baseline value.
The experimental groups consisted of 6–12 adult male Albino Swiss mice (CD-1, 18–25 g). Each animal was tested only once. Immediately after the assay, the animals were sacrificed by cervical dislocation. Behavioral measurements were observed by trained observers. The in vivo antinociceptive assays were in accordance with Polish regulations and European Union Directive of 22 September 2010 (2010/63/EU). All procedures were carried out according to the rules of the International Council on Laboratory Animal Science (ICLAS) and were approved by the Local Ethical Committee in Cracow, Poland (approval No 104/2015, 111/2016, and 179/2017). The tested substances were suspended in 1% aqueous solution of Tween-80 and were injected i.p. 30 min prior to the test. Control group animals (negative control) were administered with an appropriate amount of vehicle (Tween-80, 1% aqueous solution, i.p.) 30 min prior to the test.
The experimental in vivo procedures were previously reported for the formalin test; compounds 4 and 30 were tested in three doses—40, 80, 120 mg/kg (4), and 20, 40, 80 mg/kg (30). Before formalin application, different groups of animals were injected i.p. with vehicle (10 mL/kg, negative control). The in vivo procedure for the model of capsaicin-induced nociception was previously reported; the animals were pretreated with vehicle (10 mL/kg, negative control) and the dose–response of investigated compounds was evaluated at 40, 80, 120 mg/kg (4), and 20, 40, 80 mg/kg (30). The in vivo procedure for the model of OXPT-induced peripheral neuropathy was previously reported; the mice with developed tactile allodynia were pretreated i.p. with test compound 30 (20, 40, and 80 mg/kg) and vehicle.
Data are presented as means ± standard error of the mean (SEM). The GraphPad Prism Software (v.5) was used to analyze the vast majority of data. Statistically significant differences between groups were calculated using one-way analysis of variance (ANOVA) and the post hoc Dunnett’s multiple comparison test or two-way analysis of variance (ANOVA). The criterion for significance was set at p < 0.05.

[2] = biological target: T1, Cav1.2 (h) calcium ion channel (Homo sapiens, UniProt Q13936); assay: Cav1.2 (h) cell-based antagonist calcium flux assay
T1 construct: host or cells: HEK-293
T1 sequence (Q13936 whole entry): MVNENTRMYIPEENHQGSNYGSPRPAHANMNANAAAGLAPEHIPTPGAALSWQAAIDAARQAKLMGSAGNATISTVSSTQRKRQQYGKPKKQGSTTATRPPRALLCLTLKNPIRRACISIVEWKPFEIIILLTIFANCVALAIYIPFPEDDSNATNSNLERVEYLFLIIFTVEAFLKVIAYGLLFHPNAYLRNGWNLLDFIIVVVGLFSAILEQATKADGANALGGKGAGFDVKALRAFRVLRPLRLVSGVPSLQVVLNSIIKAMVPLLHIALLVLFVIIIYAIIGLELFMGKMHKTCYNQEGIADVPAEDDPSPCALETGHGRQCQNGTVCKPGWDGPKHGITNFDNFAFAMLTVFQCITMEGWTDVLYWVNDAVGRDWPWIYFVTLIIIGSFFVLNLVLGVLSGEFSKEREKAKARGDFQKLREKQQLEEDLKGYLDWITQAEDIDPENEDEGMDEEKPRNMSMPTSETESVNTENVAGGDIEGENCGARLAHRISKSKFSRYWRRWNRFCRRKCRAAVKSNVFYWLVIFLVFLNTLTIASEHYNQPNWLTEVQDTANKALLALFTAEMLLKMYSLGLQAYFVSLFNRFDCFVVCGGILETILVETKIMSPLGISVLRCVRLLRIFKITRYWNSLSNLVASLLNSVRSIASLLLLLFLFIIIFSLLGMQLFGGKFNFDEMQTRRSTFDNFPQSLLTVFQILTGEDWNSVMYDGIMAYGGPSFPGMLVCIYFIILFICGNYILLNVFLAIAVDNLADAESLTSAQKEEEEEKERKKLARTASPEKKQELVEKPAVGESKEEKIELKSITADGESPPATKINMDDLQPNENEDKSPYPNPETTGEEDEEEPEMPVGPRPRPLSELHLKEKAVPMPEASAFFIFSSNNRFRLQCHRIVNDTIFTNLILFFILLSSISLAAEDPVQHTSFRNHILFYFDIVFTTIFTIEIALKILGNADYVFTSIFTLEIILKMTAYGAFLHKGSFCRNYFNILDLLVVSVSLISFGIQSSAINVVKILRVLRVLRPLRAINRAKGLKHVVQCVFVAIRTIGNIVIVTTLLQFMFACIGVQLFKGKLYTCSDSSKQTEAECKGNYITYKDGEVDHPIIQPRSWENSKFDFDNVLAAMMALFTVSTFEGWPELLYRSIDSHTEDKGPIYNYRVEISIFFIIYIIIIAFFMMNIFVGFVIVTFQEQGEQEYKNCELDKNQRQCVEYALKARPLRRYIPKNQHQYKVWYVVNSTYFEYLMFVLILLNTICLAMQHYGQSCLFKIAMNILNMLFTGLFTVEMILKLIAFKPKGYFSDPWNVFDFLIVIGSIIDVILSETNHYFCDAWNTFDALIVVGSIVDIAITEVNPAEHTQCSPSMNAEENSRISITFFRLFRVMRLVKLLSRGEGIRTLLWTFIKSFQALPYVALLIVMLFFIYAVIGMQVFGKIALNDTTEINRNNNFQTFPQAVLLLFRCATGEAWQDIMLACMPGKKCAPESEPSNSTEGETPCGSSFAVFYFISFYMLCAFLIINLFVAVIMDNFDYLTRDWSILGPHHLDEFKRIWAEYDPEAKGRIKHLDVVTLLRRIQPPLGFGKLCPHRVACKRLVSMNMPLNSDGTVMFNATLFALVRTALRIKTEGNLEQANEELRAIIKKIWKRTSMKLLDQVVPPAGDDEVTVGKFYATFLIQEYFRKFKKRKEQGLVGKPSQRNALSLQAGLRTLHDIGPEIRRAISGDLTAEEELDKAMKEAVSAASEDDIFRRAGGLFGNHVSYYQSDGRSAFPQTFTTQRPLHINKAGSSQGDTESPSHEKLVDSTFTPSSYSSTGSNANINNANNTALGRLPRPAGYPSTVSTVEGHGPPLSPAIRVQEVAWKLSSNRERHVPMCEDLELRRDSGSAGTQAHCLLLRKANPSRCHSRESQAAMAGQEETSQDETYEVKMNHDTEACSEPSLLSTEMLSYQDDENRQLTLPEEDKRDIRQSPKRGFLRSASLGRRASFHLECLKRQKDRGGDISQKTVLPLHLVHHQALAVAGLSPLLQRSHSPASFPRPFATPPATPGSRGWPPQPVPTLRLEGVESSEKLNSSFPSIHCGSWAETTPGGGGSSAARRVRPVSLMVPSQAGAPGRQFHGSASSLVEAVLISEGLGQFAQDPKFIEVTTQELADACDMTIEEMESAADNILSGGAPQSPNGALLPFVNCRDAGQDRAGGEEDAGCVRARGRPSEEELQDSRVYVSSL
T1 sequence (Q08289 whole entry partner): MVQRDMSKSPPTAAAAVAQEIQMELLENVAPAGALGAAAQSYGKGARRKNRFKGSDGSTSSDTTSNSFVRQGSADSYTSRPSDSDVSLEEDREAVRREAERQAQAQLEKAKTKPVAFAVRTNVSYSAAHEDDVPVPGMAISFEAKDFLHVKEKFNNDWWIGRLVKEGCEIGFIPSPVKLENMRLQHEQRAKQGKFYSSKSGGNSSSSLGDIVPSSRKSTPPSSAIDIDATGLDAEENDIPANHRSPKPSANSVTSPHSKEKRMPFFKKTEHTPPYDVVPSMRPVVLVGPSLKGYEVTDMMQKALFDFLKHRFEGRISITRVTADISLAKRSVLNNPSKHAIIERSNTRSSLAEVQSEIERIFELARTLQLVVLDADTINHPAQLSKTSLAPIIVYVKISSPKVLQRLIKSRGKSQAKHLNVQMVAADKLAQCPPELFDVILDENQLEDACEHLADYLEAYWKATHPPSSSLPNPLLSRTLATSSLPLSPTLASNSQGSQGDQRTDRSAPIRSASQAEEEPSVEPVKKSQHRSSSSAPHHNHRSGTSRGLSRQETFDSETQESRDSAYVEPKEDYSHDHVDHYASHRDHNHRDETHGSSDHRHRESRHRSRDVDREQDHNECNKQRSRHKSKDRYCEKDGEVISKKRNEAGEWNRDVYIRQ
T1 sequence (P54289 25-956 partner limits assumed): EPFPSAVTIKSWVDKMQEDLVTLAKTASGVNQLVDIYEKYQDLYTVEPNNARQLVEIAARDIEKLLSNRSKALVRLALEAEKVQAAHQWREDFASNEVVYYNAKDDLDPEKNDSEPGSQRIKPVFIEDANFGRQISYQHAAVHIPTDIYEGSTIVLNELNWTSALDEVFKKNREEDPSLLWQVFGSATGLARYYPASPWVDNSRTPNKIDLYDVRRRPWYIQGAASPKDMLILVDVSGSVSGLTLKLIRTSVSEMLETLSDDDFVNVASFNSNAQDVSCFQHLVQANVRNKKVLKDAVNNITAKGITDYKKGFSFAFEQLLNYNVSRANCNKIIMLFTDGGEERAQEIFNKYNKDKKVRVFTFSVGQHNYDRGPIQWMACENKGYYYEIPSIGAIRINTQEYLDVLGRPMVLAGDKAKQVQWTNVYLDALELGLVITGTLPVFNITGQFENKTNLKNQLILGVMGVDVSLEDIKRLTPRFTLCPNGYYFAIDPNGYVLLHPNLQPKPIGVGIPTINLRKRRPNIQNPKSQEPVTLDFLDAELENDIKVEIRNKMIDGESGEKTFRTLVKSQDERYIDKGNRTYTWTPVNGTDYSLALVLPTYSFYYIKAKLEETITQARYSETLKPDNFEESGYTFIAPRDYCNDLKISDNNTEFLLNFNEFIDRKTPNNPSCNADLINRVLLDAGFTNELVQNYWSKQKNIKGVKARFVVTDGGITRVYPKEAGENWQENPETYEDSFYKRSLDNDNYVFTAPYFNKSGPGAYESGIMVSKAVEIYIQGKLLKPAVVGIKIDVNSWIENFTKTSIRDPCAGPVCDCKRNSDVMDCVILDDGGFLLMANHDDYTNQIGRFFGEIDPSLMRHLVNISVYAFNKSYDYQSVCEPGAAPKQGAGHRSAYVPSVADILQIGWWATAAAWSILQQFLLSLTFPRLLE
T1 sequence (P54289 957-1103 partner limits assumed): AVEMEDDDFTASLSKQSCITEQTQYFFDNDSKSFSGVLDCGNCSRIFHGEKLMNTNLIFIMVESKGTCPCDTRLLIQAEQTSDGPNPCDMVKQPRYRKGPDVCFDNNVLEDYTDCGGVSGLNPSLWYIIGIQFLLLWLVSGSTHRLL
Experimental: Binding studies were carried out commercially in Eurofines Laboratories (Poitiers, France). The functional assays were performed in Eurofins Panlabs Discovery Services Taiwan, Ltd. (New Taipei City, Taiwan). All procedures are described elsewhere (for details, see Table S4 in Supplementary Materials).
Binding studies were carried out commercially in Eurofines Laboratories (Poitiers, France). The
functional assays were performed in Eurofins Panlabs Discovery Services Taiwan, Ltd. (New Taipei
City, Taiwan). All procedures are described elsewhere (Table S4).
Table S4. In vitro binding and functional assays. […]
Cav1.2 (h) calcium ion channel cell based antagonist calcium flux assay 16,17

[3] = biological target: T2, CYP3A4 (Homo sapiens, UniProt P08684); assay: Luminescent CYP3A4 P450-Glo assay; assay type: in vitro ADME; conditions: 1 µM
T2 construct: purchased Promega (Madison, WI, USA)
T2 sequence (P08684 whole entry): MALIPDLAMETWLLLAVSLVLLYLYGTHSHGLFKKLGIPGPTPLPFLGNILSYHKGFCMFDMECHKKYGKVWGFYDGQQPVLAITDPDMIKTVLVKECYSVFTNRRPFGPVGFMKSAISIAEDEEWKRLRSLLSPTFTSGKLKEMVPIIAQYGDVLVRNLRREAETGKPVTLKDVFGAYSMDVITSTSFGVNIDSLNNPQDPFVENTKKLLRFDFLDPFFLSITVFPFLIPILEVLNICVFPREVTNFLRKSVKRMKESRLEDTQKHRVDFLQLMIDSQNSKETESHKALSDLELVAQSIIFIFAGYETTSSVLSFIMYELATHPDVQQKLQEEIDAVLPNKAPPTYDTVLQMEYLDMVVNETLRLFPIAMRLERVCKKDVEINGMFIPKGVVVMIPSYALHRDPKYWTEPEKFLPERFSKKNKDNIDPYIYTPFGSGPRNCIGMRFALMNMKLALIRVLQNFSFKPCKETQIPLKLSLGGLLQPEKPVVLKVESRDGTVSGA

[4] = early phase (3 h after OXPT), 20 mg/kg i.p.
[5] = early phase (3 h after OXPT), 40 mg/kg i.p.
[6] = early phase (3 h after OXPT), 80 mg/kg i.p.
[7] = late phase (7 days after OXPT), 20 mg/kg i.p.
[8] = late phase (7 days after OXPT), 40 mg/kg i.p.
[9] = late phase (7 days after OXPT), 80 mg/kg i.p.

O=C(NCCc1cccc(OC(F)(F)F)c1)C(c1ccccc1)N1C(=O)CCC1=O (stereo not drawn) [Compound 30, 2-(2,5-Dioxopyrrolidin-1-yl)-2-phenyl-N-(3-(trifluoromethoxy)phenethyl)acetamide]
pain sensitivity threshold (von Frey, force causing paw withdrawal) [1, 4]: 2.26 ± 0.08 g
pain threshold, % of the baseline value [1, 4]: 76.8%
pain sensitivity threshold (von Frey, force causing paw withdrawal) [1, 5]: 2.49 ± 0.05 g
pain threshold, % of the baseline value [1, 5]: 84.7%
pain sensitivity threshold (von Frey, force causing paw withdrawal) [1, 6]: 2.97 ± 0.05 g
pain threshold, % of the baseline value [1, 6]: 101.0%
pain threshold (von Frey) [1, 7]: 2.18 ± 0.06 g
pain threshold, % of the baseline value [1, 7]: 74.1%
pain threshold (von Frey) [1, 8]: 2.60 ± 0.08 g
pain threshold, % of the baseline value [1, 8]: 88.4%
pain threshold (von Frey) [1, 9]: 2.91 ± 0.05 g
pain threshold, % of the baseline value [1, 9]: 98.9%
antagonist properties in cell-based flux studies (Cav1.2) ([2]; 10 µM): moderate antagonist properties
inhibition at 10 µM ([2]; HEK293, human recombinant (HEK-293 cells), read-out: % Inhibition of Control Agonist Response, Cav1.2 (h) calcium flux): 49%
effect on CYP3A4 activity [3]: slightly inhibited CYP3A4 activity

Reference: PMC7699745, “The Search for New Anticonvulsants in a Group of (2,5-Dioxopyrrolidin-1-yl)(phenyl)Acetamides with Hybrid Structure—Synthesis and In Vivo/In Vitro Studies” (International Journal of Molecular Sciences, 2020)
